Article PMC5623949, “Exploiting the 2-Amino-1,3,4-thiadiazole Scaffold To Inhibit Trypanosoma brucei Pteridine Reductase in Support of Early-Stage Drug Discovery” (ACS Omega, 2017)
Like-named read-outs stand apart in the source and are kept apart here.

Columns and labels:
TbPTR1 = molecular target: T1, TbPTR1 (Trypanosoma brucei brucei, UniProt O76290); assay: biochemical; conditions: for inhibition at 50 µM: read-out: % Inhibition TbPTR1 at 50 μM; for IC50: dose-response 0.001-100 μM
T1 construct: made in house
T1 sequence (O76290 1-268): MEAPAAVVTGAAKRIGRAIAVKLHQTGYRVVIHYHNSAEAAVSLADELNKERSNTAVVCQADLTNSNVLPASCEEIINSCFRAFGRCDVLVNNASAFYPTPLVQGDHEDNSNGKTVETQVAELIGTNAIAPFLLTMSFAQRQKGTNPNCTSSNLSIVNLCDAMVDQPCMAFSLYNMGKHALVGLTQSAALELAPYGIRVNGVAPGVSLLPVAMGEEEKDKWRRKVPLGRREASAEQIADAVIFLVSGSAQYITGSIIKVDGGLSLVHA

[1] = test system: T. b. brucei Lister 427 bloodstream forms; assay: In vitro activity against T. brucei (HTS SYBR Green I growth inhibition assay); assay type: cell-based, Trypanosoma brucei brucei; conditions: standard deviation within ±10% of the value; for inhibition at 50 µM: read-out: % Inhibition T. brucei at 50 μM
hERG = molecular target: T2, hERG (Homo sapiens, UniProt Q12809); parameters: hERG inhibition liability assay
T2 construct: gene KCNH2
T2 sequence (Q12809 whole entry): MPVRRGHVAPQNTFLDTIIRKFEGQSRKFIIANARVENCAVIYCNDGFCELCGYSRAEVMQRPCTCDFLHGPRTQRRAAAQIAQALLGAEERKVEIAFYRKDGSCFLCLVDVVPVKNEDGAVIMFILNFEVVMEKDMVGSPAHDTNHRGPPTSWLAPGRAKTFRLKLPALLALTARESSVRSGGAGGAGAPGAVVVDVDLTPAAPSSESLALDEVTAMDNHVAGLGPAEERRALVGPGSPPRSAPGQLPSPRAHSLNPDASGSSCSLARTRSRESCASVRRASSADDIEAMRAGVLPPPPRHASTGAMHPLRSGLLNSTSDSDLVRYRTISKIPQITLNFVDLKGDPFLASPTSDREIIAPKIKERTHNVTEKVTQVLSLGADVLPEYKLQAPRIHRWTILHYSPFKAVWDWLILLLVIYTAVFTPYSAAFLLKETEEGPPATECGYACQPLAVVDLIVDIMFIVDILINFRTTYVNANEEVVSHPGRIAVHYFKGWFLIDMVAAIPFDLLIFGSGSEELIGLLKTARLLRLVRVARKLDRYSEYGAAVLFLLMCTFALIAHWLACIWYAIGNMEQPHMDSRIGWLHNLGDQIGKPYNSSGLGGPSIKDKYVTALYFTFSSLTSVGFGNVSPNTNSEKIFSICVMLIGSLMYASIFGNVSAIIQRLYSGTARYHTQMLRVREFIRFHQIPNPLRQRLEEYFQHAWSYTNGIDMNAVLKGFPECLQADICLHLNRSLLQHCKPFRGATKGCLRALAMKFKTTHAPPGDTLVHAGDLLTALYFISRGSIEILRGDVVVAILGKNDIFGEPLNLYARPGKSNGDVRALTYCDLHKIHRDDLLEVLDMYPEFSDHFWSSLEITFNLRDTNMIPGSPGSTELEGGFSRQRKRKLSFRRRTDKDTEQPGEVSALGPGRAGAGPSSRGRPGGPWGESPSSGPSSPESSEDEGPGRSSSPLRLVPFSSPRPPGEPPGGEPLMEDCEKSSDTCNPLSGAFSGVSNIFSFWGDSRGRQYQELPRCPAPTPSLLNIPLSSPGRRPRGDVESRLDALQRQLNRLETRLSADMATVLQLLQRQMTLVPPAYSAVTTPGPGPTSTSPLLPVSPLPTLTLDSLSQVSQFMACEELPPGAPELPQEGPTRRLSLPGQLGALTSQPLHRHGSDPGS

CYP1A2 = molecular target: T3, CYP1A2 (Homo sapiens, UniProt P05177); assay: in vitro; parameters: cytochrome P450 isoform inhibition liability assay
T3 sequence (P05177 1-516): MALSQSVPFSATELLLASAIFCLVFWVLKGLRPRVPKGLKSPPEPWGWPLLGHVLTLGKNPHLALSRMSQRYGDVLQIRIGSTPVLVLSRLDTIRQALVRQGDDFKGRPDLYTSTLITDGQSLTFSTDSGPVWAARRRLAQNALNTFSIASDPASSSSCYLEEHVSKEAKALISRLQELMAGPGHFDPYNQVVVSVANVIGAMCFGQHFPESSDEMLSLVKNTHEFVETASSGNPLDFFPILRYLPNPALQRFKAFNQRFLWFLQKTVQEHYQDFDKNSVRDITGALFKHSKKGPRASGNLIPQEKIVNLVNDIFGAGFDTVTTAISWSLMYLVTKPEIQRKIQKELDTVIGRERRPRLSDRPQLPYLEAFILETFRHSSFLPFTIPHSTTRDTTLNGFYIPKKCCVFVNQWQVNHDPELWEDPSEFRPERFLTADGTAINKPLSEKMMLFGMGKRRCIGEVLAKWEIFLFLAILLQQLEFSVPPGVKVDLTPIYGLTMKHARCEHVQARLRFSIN

CYP2C19 = CYP2C19 (Homo sapiens, UniProt P33261); assay: in vitro; parameters: cytochrome P450 isoform inhibition liability assay
Chain of CYP2C19 (P33261 whole entry, canonical isoform): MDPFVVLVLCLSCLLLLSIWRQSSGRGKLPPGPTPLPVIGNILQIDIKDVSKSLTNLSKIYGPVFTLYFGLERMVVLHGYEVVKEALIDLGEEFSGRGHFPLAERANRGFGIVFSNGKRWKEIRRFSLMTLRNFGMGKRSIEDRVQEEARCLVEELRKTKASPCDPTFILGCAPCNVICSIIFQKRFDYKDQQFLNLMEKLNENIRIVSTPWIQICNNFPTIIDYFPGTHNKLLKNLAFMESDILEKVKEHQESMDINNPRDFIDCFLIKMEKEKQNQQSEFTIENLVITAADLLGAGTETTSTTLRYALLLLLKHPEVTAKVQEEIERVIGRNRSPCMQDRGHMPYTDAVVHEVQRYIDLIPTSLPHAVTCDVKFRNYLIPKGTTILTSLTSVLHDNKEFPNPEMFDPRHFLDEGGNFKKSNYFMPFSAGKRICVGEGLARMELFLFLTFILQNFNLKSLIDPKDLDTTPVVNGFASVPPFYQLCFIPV

CYP2C9 = CYP2C9 (Homo sapiens, UniProt P11712); assay: in vitro; parameters: cytochrome P450 isoform inhibition liability assay
Chain of CYP2C9 (P11712 whole entry, canonical isoform): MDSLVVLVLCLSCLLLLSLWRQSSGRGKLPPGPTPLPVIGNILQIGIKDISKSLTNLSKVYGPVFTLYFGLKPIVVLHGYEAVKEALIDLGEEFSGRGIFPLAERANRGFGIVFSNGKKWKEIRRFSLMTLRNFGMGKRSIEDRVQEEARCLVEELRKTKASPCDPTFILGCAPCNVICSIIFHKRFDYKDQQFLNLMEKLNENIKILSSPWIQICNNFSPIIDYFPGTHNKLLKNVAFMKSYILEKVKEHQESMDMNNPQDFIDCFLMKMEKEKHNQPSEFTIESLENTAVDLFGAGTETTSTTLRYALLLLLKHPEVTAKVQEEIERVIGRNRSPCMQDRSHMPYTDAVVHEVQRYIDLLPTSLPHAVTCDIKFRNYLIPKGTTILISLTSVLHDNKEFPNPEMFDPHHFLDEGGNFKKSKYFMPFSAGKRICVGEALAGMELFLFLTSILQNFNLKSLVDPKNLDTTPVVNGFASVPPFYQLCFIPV

CYP2D6 = CYP2D6 (Homo sapiens, UniProt P10635); assay: in vitro; parameters: cytochrome P450 isoform inhibition liability assay
Chain of CYP2D6 (P10635 whole entry, canonical isoform): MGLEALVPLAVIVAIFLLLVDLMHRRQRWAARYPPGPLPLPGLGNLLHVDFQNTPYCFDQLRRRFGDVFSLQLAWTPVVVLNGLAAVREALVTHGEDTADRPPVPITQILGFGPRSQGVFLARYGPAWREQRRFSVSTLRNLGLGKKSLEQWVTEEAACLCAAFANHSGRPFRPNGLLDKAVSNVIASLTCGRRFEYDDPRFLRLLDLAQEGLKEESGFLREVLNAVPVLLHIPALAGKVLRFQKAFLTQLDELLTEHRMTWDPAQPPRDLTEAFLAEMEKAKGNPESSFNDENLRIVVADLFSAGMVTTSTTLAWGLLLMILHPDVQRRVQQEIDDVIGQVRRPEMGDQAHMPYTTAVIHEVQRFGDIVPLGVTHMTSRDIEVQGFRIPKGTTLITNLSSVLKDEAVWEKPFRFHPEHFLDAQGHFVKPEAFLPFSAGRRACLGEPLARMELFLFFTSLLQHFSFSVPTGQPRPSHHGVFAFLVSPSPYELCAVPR

CYP3A4 = CYP3A4 (Homo sapiens, UniProt P08684); assay: in vitro; parameters: cytochrome P450 isoform inhibition liability assay
Chain of CYP3A4 (P08684 whole entry, canonical isoform): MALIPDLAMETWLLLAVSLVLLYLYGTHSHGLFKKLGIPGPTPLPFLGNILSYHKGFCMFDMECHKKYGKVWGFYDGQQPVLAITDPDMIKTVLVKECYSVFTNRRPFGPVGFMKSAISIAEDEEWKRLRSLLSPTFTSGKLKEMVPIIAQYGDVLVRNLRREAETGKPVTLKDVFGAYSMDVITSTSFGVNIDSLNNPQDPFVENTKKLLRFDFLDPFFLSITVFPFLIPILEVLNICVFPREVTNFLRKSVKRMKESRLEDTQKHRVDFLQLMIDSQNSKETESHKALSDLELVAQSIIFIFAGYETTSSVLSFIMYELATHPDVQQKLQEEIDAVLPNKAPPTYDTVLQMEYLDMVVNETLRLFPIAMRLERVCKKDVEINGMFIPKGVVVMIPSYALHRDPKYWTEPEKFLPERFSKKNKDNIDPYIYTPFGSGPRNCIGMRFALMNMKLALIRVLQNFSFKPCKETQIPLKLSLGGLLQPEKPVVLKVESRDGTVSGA

hDHFR = molecular target: T4, hDHFR (Homo sapiens, UniProt P00374); assay: biochemical; parameters: human DHFR enzyme inhibition
T4 construct: gene DHFR
T4 sequence (P00374 1-187): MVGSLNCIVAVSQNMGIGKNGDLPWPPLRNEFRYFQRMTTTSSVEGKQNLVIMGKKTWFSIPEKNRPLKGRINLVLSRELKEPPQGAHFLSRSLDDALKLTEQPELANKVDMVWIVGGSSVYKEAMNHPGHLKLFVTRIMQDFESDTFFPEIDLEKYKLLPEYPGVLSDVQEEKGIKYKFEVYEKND
Description: Figure 10 Summary heat map of the in vitro assays to determine possible liability issues for all synthesized compounds. Assays were performed to assess inhibition of hERG and five CYP isoforms (1A2, 2C9, 2C19, 2D6, and 3A4), growth inhibition of A549 and W1-38 cell lines, and mitochondrial toxicity at 10 μM. The hDHFR inhibition was determined at 100 μM. The data, expressed as percentage values, were organized by adopting a color code for rapid and intuitive visualization. The ideal compound should have all tiles blue, indicating a safe toxicological profile for progressing into the development pipeline. The cells are colored from blue (100% of cell growth at the tested concentration) to red (0% of cell growth at the tested concentration) for A549 and W1-38 and from blue (0% of inhibitory activity at the tested concentration) to red (100% of inhibitory activity at the tested concentration) for CYP isoforms, hERG, hDHFR, and mitochondrial toxicity.

786-O = assay: cells; parameters: mitochondrial toxicity in 786-O renal carcinoma cells; conditions: Homo sapiens, 786-0; mitochondrial toxicity
in vitro [2] = assay: in vitro; parameters: cytotoxicity, per cent cell growth of A549 cells; conditions: human, a549 cells; read-out: % cell growth A549 at 10uM
in vitro [3] = assay: in vitro; parameters: cytotoxicity, per cent cell growth of WI-38 fibroblasts; conditions: human, wi-38 cells; read-out: % cell growth W1-38 at 10uM

| SMILES | inhibition at 50 µM (TbPTR1; 50 μM compound) [%] | inhibition at 50 µM ([1]; Trypanosoma brucei, 50 μM) [%] | inhibition at 10 µM (hERG) [%] | inhibition at 10 µM (CYP1A2) [%] | inhibition at 10 µM (CYP2C19) [%] | inhibition at 10 µM (CYP2C9) [%] | inhibition at 10 µM (CYP2D6) [%] | inhibition at 10 µM (CYP3A4) [%] | inhibition at 10 µM (hDHFR; 10 uM) [%] | inhibition at 10 µM (786-O) [%] | viability at 10 µM (in vitro [2]) [%] | viability at 10 µM (in vitro [3]) [%] | % Inhibition TbPTR1 at 50 μM (TbPTR1; 50 μM compound) | IC50 (TbPTR1) [µM] | % Inhibition T. brucei at 50 μM ([1]; 50 μM) [%] | EC50 ([1]; Trypanosoma brucei, read-out: EC50 T. brucei) [nM] | inhibition at 100 µM (hDHFR) [%] | inhibition at 25 µM (hDHFR; 25 uM) [%] |
| --- | --- | --- | --- | --- | --- | --- | --- | --- | --- | --- | --- | --- | --- | --- | --- | --- | --- | --- |
| Nc1nnc(-c2ccc(-c3nnc(N)s3)c(N)c2)s1 [1o] | 23.4 ± 0.1 | 1.6 | -1.9 ± 4.9 | 9.5 ± 4.2 | -28.3 ± 16 | -4.2 ± 4.2 | -38 ± 5.7 | -0.7 ± 4.4 | 12 | -6.1 ± 4.3 | 118 ± 9.4 | 103 ± 1.8 | – | – | – | – | – | – |
| Nc1nnc(-c2cc(O)c(O)c(O)c2)s1 [1f, 3′,4′,5′-trihydroxy-phenyl-1,3,4-thiadiazole] | 44.9 ± 0.9 | – | 3.3 ± 2.2 | 71.4 ± 6.9 | 67.4 ± 7.3 | 38.2 ± 5.4 | -6 ± 7.3 | 67.7 ± 3.1 | – | -9.6 ± 7.9 | 118 ± 3.1 | 111 ± 12.9 | did not show inhibition | 41 | 100.0 | 1000 | 31 | – |
| COC(=O)C(Cc1ccccc1)Nc1nnc(N)s1 (centres unmarked) [4p, Methyl 2G((5GaminoG1,3,4GthiadiazolG2Gyl)amino)G3Gphenylpropanoate] | 3.9 ± 0.3 | 0.4 | 28.7 ± 10.5 | -1.5 ± 4.3 | -27.4 ± 13.1 | -10.9 ± 3 | 47.4 ± 3.3 | -12.5 ± 6.8 | – | 1.72 ± 5.2 | 126 ± 3.5 | 114 ± 12.7 | – | – | – | – | 9 | – |
| Nc1nnc(-c2ccc(OCc3ccc(Cl)c(Cl)c3)cc2)s1 [1r] | < 0 | 58.4 | 40.7 ± 7.5 | 24.7 ± 1.4 | 69.6 ± 5.2 | 31.3 ± 0.4 | 48 ± 0.9 | 14.9 ± 5.7 | – | 4.7 ± 7.8 | 104 ± 6.6 | 68.7 ± 17.9 | – | – | – | – | 17 | – |
| N#Cc1ccc(CNc2nnc(N)s2)cc1 [4h] | 34.6 ± 3 | < 0 | 82.6 ± 11.8 | 17.1 ± 4.4 | -2 ± 6.3 | 15 ± 1.4 | 62.4 ± 2.9 | 7.2 ± 12.7 | – | -0.1 ± 9.4 | 105 ± 2.3 | 107 ± 24.9 | – | 70 | – | – | 17 | – |
| Nc1nnc(-c2cccc(Br)c2)s1 [1i] | 34.2 ± 1.5 | 1.8 | 14.6 ± 4.2 | 47 ± 2 | -30.9 ± 4.3 | -47.7 ± 2 | -45.1 ± 6.2 | -14.1 ± 6 | – | -3.6 ± 9.1 | 135 ± 4.6 | 111 ± 12.3 | – | – | – | – | 19 | – |
| Nc1nnc(N)s1 [4a] | 14.2 ± 0.8 | < 0 | 4.7 ± 3.6 | 40.5 ± 3 | 62.3 ± 8.3 | 46 ± 1.7 | -15.9 ± 8.6 | 53.4 ± 4.4 | – | 1.7 ± 6.6 | 113 ± 4.4 | 81.3 ± 13.5 | – | – | – | – | 36 | – |
| Nc1nnc(NCc2ccc(C(F)(F)F)cc2)s1 [4f] | 37.7 ± 0.5 | < 0 | 69.9 ± 2.3 | 24.6 ± 2.5 | 11.9 ± 6.6 | 19.5 ± 1.3 | 72.4 ± 3.8 | 7.8 ± 9.8 | – | 9.6 ± 12.5 | 113 ± 4.8 | 80.9 ± 23.6 | – | 48 | – | – | 19 | – |
| Nc1nnc(-c2cccc(-c3ccccc3)c2)s1 [2c] | 25.2 ± 1.4 | 14.4 | 83.7 ± 2.5 | 101 ± 1.4 | 65.1 ± 6.8 | 24.1 ± 0.4 | 48.2 ± 2.3 | 59.5 ± 3.7 | – | 0 | 115 ± 5.3 | 87.2 ± 13.8 | – | – | – | – | – | 23 |
| Nc1nnc(N2CCC(Cc3ccccc3)CC2)s1 [4r, 5G(4GbenzylpiperidinG1Gyl)G1,3,4GthiadiazolG2Gamine] | 8.4 ± 0.3 | 1.8 | 46.5 ± 4.7 | 20 ± 1.2 | 89.4 ± 2 | 45.9 ± 3.3 | 82.7 ± 0.6 | 21.7 ± 4.3 | – | -7.3 ± 10.5 | 111 ± 6.5 | 92.7 ± 15.7 | – | – | – | – | 13 | – |
| COc1ccc(-c2nnc(N)s2)cc1OC [1c] | 9.4 ± 0.3 | 64.3 | 13.6 ± 4 | 14.1 ± 3.4 | -26.1 ± 22.5 | -25.9 ± 1.5 | -45.9 ± 3.1 | -7.1 ± 6 | – | -7.3 ± 5.2 | 105 ± 5.3 | 110 ± 33.5 | – | – | – | – | 42 | – |
